Measured values published in patent US20080020077A1, “Association Of Vegetal Extracts Based On Gooseberries, Black Orchids And Black Tulips And Topical Composition Comprising The Association Of Said Vegetal Extracts” (priority 2004, published 2008).

System: collagen
Test: Collagen content of human fibroblasts (hydroxyproline by reverse-phase HPLC)
Type: cell-based
Settings: positive reference, versus control
Method: For this study, the fibroblasts were cultured in the same way as in paragraph 1.4.1. After the incubation period, the fibroblasts were recovered by centrifugation. The pellets were digested with […] (1 mg/cell pellet) in […] acetic acid for 24 hours at 4° C. After centrifugation at 10 000 g, the collagens were precipitated with 1 M sodium chloride (NaCl), and the precipitate was resuspended and then dialyzed. The primary amino acids were derivatized with o-phthaldehyde (OPA) acid, thus eliminating their interference. Hydroxyproline and proline were then derivatized with NBD-Cl by coupling the amino groups to NBD-CL. The NBD-Hyp was separated and identified by reverse-phase HPLC. […] The mobile phase is pre-filtered and then degassed before use. • The solutions are prepared in the following way: […] The standard curve is prepared from a solution of hydroxyproline at 50 mg/l. Successive dilutions make it possible to obtain solutions ranging from 0.5 to 40 mg/l. The derivatization and the establishment of the standard curve are carried out using 10 μl of a standard solution at various concentrations, mixed with 10 μl of the buffer. After the addition of 5 μl of OPA and agitation, the tubes are kept at ambient temperature for 5 min and then 10 μl of the NBD-Cl solution are added. […] The tubes are then removed and the orange coloration makes it possible to verify the derivatization. […]

In the case of `O=C1O[C@H]([C@@H](O)CO)C(O)=C1O` [Vit C, vitamin C], the “% incorporation” value is reported as “+61%”.
